Source: patent publication US20140378515A1, “IMMUNOSUPPRESSIVE COMPOUNDS” (priority 2013, published 2014)

Columns and labels:
[1] = tested on: NO produced by mouse macrophages J774.2 cell line; experiment: Nitrite accumulation in LPS-stimulated J774.2 macrophages (Griess method); assay type: cell-based; settings: LPS-stimulated J774.2, 24 hours
Method: The mouse macrophage cell line J774.2 obtained from ECACC, Salisbury, Wiltshire (UK) was cultured in T75 flasks in complete DMEM containing 10% fetal bovine serum and supplemented with 1% streptomycin/penicillin. Flasks were kept at 37° C. in the atmosphere of humidified air containing 5% CO2. Cell were then seeded in 24 well (10^6 cells/mL) and nitric oxide synthase (NOS-2) in the macrophages was induced by addition of 20 μg/mL E. coli lipopolysaccharide (DIFCO Laboratories, Michigan, USA). The test compounds were added at a concentration of 25 μg/mL soon after LPS stimulation and incubated at 37° C. in 5% CO2. Cell culture supernatant was collected after 24 hours. Nitrite accumulation in J774.2 cell culture supernatant was measured using the Griess method, where 50 μL of 1% sulphanilamide in 2.5% phosphoric acid, followed by 50 μL of 0.1% naphtyl-ethylene diamine dihydrochloride in 2.5% phosphoric acid were added to 50 μL culture medium. After 10 minutes of incubation at room temperature the absorbance at 550 nm was read. Micromolar concentrations of nitrite were calculated from standard curve constructed with sodium nitrite a reference compound. The results were expressed as means±SD of duplicate readings.

T-cell proliferation = T-cell proliferation assay (PHA-stimulated PBMNCs, 3H-thymidine incorporation); assay type: cell-based, human; design: unit not given here; settings: PHA 5 μg/mL stimulated PBMNCs
Method: The diluted blood was then layered onto lymphocyte separation medium (MP Biomedicals, Inc., Ohio, USA) and centrifuged at 400 g for 20 min at 25° C. […] Plates were then incubated at 37° C. in a humidified atmosphere of 5% CO2 in air for 72 hours. To each well, 0.5 μCi [methyl ^3H]-thymidine (Amersham Place Little Chalfont, Buckinghamshire, UK) was added for an additional 18 hours. Cells were harvested using a cell harvester (Inotech, Dottikon, Switzerland), and incorporation and level of radioactivity was measured by a liquid scintillation counter (Beckman coulter, LS 6500, Fullerton, Calif., USA).

IL-2 production = IL-2 production by PHA/PMA stimulated PBMCs (ELISA); assay type: cell-based, human; settings: experimental IL-2 IC50 listed in Table 3
Method: The PBMCs were cultured in a 96-well flat-bottomed plate (1.0×10^5 cell/well) in the presence or absence of three concentrations of test compounds (1.0, 5.0 and 20 μg/mL), and phytohemagglutinin (PHA) phorbol myristate acetate (PMA) in a final concentration of 5 ng/mL and 20 ng/mL, respectively. After an incubation period of 18 h at 37° C. in a humidified atmosphere of 5% CO2 in air, the supernatant was collected for IL-2 determination. Interleukin-2 levels were measured by using enzyme-linked immunosorbent assay (ELISA) development kit (R&D systems, Minneapolis, Minn., USA). The assay was performed according to the manufacturer's instructions. Briefly, a 96-well flat-bottomed ELISA plate was coated with 4.0 μg/mL mouse anti-human IL-2, in PBS, pH 7.4. Then, re-combinant human IL-2 standards and culture supernatant samples were added and incubated for 2 h followed by washing steps and then the addition of biotinylated goat anti-human IL-2. After an incubation period of 2 h at room temperature, the plates were again washed and streptavidin conjugated horse raddish peroxidase was added and incubated for additional 20 min at room temperature. After the final washes, an enzyme substrate solution of H2O2 and tetra methyl benzidine (1:1 v/v) was added and the color was allowed to develop at room temperature in the dark. The plates were then read at 450 nm in a plate reader (DIAReader GMBH, Wr. Neudorf, Austria). The results were analyzed using Microsoft Excel.

[2] = tested on: 3T3 NIH mouse embryo fibroblast cell line
Method: The 3T3-NIH cells were suspended in Dulbecco's Modified Eagle's Medium (DMEM) formulated with 10% FBS. Using flat bottomed plates, cells were plated at a concentration of 6×10^4 cells/mL and incubated for 24 h at 37° C. and 5% CO2 environment. […] Following exposure to each compound, cell viability was assessed by using 0.5 mg/mL of MTT {3-(4,5-dimethylthiazol-2-yl)-2,5-diphenyltetrazolium bromide for 4 h followed by the removal of supernatant and addition of DMSO to solubilize the formazan complex. The plates were read at 540 nm after one minute shaking and readings were processed using MS Excel software. The results were expressed as means±SD of triplicate readings.

[3] = tested on: ROS produced by human blood phagocytes; experiment: Oxidative burst, luminol-enhanced chemiluminescence in whole blood; assay type: cell-based; settings: serum opsonized zymosan
Method: Formation of the reactive oxygen species (ROS) in whole blood, during the oxidative burst was measured by the luminol-enhanced chemiluminescence assay. In brief, three concentrations of each compound (1.0, 10 and 100 μg/mL) were prepared in 25 μL of Hank's Balanced salt solution containing calcium chloride and magnesium sulfate (HBSS^++) in a half area 96-well white flat-bottomed plate (Sigma Aldrich, Steinheim, Germany) in a final volume of 100 μL. Then 25 μL of whole blood diluted 1:50 in suspension of HBSS^++ was added.
Positive and negative controls and blank wells were included. Cells and compounds were incubated for 30 minutes at 37° C., then 25 μL luminol [3-aminophthalhydrazide] (Research Organics Cleveland, Ohio, USA), were added into each well followed by 25 μL of serum opsonized zymosan (Saccharomyces cerevisiae origin) purchased from Fluka, Buchs (Switzerland) was added except for negative and blank wells. The ROS chemiluminescence kinetic was monitored with a luminometer from Labsystems (Helsinki, Finland), for 50 minutes in the repeated scan mode. Peak and total integral chemiluminescence readings were expressed in the relative light unit.

COc1cccc(-c2nc3ccccc3s2)c1O [Compound 2]
% of NO inhibited by 25 μg/mL of compound [1]: 28.9 ± 1.3% | IC50 T-cell proliferation (T-cell proliferation): 2.97±0.3 | IC50 (IL-2 production): <1 µg/mL | Cytotoxicity IC50 [2]: >25 µg/mL | IC50 (μg/mL) for phagocytes ROS [3]: 1.9 ± 0.6 µg/mL
